Data: US10030016B2 (Sunesis Pharmaceuticals, Inc., priority 2009, dated 2018)
Structures can show the parent of a compound that is named as a salt. Where two headings read alike, the source gives them in different places.

How the values were obtained:
[1] = target: PDK1 (Homo sapiens (Human), UniProt O15530); test: PDK1 kinase assay (coupled PDK1/AKT/FAM-crosstide assay, IMAP fluorescence polarization); format: biochemical
Method in brief: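 Inhibition is derived by 4-parameter fitting of ΔmP from an IMAP fluorescence polarization read of FAM-crosstide (100 nM) phosphorylation. The cascade ran 30 min at 25 °C with 40 μM ATP, using insect-cell GST-PDK1 51-359 (0.75 nM) driving 10 nM unphosphorylated AKT2 140-467-PIFtide fusion.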

[2] = tested on: phospho-akt (Thr308) in PC-3 cells; test: Inhibition of phospho-akt (Thr308) in PC-3 cells, MSD phospho-akt 308 ELISA kit; format: cell-based; conditions: 2 hours, no serum, read-out: EC50
Method in brief: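 Electrochemiluminescent MSD ELISA of Thr308-phosphorylated Akt after a 2 h serum-free compound exposure of PC-3 cells (15,000/well, plated overnight). Controls: DMSO (high), 5 μM wortmannin (low). Lysate binding overnight at 4 °C; detection antibody 1 h at room temperature.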

[3] = inhibition of phospo-PDK1 in vitro
[4] = Homo sapiens, inhibition of P308 Akt in PC-3 cells, MSD
[5] = Homo sapiens, inhibition of P308 Akt in PC-3 cells using MSD

Sequence of PDK1 (O15530 51-359): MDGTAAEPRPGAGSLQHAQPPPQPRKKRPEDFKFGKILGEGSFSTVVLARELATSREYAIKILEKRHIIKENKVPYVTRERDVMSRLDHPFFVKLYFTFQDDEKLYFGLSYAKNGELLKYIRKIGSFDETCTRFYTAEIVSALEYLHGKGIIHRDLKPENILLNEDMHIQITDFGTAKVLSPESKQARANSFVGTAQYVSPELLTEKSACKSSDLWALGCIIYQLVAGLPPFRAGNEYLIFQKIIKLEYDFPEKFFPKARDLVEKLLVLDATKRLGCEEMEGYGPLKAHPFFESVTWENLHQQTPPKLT

Row | Structure (SMILES) | IC50 [1, 3] | EC50 [2, 4] | IC50 ([1]; inhibition of PDK1 in vitro) | EC50 [2, 5] | also measured
1 | C[C@H](NC(=O)c1cc(C#N)cnc1NCc1ccc(-c2cnc(N)c(OCCN)n2)cc1)c1ccc(F)cc1 [Example 165, 2-{4-[5-Amino-6-(2-amino-ethoxy)-pyrazin-2-yl]-benzylamino}-5-cyano-N-[(S)-1-(4-fluoro-phenyl)-ethyl]-nicotinamide] |  |  | < 0.1 µM | < 1 µM | 
2 | C[C@H](NC(=O)c1nc(C#N)cnc1NCc1ccc(-c2cnc3[nH]nc(N)c3c2)cc1)c1ccc(F)cc1 [Example 32, (S)-3-(4-(3-amino-1H-pyrazolo[3,4-b]pyridin-5-yl)benzylamino)-6-cyano-N-(1-(4-fluorophenyl)ethyl) pyrazine-2-carboxamide] | < 0.1 µM | < 1 µM |  |  | 
3 | Nc1ncnc2[nH]nc(-c3ccc(CNc4ncc(C(F)(F)F)cc4C(=O)NCc4ccc(F)c(F)c4)cc3)c12 [Example 329, 2-[4-(4-Amino-1H-pyrazolo [3,4-d]pyrimidin-3-yl)-benzylamino]-N-(3,4-difluoro-benzyl)-5-trifluoromethyl-nicotinamide] |  |  | < 0.1 µM | < 1 µM | 
4 | C[C@H](NC(=O)c1cc(C#N)cnc1NCc1ccc(-c2cnc(N)c(C(=O)NCCN3CCOCC3)n2)cc1)c1ccc(F)cc1 [Example 214, (S)-3-amino-6-(4-((5-cyano-3-(1-(4-fluorophenyl)ethylcarbamoyl)pyridin-2-ylamino)methyl)phenyl)-N-(2-morpholinoethyl) pyrazine-2-carboxamide] |  |  | < 0.1 µM | < 1 µM | 
5 | C[C@H](NC(=O)c1nc(C#N)cnc1NCc1ccc(-c2cnc(N)c(CCC(C)(C)N)n2)cc1)c1ccc(F)c(F)c1 [Example 84, 3-{4-[5-Amino-6-(3-amino-3-methyl-butyl)-pyrazin-2-yl]-benzylamino}-6-cyano-pyrazine-2-carboxylic acid [(S)-1-(3,4-difluoro-phenyl)-ethyl]-amide] |  |  | < 0.1 µM | < 1 µM | 
6 | C[C@H](NC(=O)c1cc(C#N)cnc1NCc1ccc(-c2cnc(N)c(-c3cccc(O)c3)n2)cc1)c1ccc(F)cc1 [Example 234, 2-{4-[5-Amino-6-(3-hydroxy-phenyl)-pyrazin-2-yl]-benzylamino}-5-cyano-N-[(S)-1-(4-fluoro-phenyl)-ethyl]-nicotinamide] |  |  | < 0.1 µM |  | EC50 ([2]; Homo sapiens, PC-3, 2 h, inhibition of P308 Akt in PC-3 cells using MSD): 1 to 10 µM
7 | C[C@H](NC(=O)c1cc(C#N)cnc1NCc1ccc(-c2ccc3ncnc(N)c3c2)s1)c1ccc(F)cc1 [Example 8.8.3, 2-({[5-(4-aminoquinazolin-6-yl)thiophen-2-yl]methyl}amino)-5-cyano-N-[(1S)-1-(4-fluorophenyl)ethyl] pyridine-3-carboxamide] | < 0.1 µM | < 1 µM |  |  | 
8 | C[C@H](NC(=O)c1nccnc1NCc1ccc(-c2cnc3[nH]c(=O)[nH]c3c2)cc1)c1ccc(F)cc1 [Example 357, (S)-N-(1-(4-fluorophenyl)ethyl)-3-(4-(2-oxo-2,3-dihydro-1H-imidazo[4,5-b]pyridin-6-yl)benzylamino) pyrazine-2-carboxamide] |  |  | < 0.1 µM | < 1 µM | 
9 | C[C@H](NC(=O)c1cc(C#N)cnc1NCc1ccc(-c2c[nH]c3ncnc(N)c23)cc1F)c1ccc(F)cc1 [Example 99, (S)-2-(4-(4-amino-7H-pyrrolo[2,3-d]pyrimidin-5-yl)-2-fluorobenzylamino)-5-cyano-N-(1-(4-fluorophenyl)ethyl) nicotinamide] |  |  | < 0.1 µM |  | EC50 ([2]; inhibition of P308 Akt in PC-3 cells using MSD): < 1 µM
10 | C[C@H](NC(=O)c1cc(C2=CCOC2)cnc1NCc1ccc(-c2cn(C)c3ncnc(N)c23)cc1)c1ccc(F)cc1 [Example 248, (S)-2-(4-(4-amino-7-methyl-7H-pyrrolo[2,3-d]pyrimidin-5-yl)benzylamino)-5-(2,5-dihydrofuran-3-yl)-N-(1-(4-fluorophenyl)ethyl) nicotinamide] |  |  | < 0.1 µM | < 1 µM | 
11 | Nc1ncnc2ccc(-c3ccc(CNc4ncc(C5COC5)cc4C(=O)NCc4ccc(F)c(F)c4)s3)cc12 [Ex. 8.8.4, 2-((5-(4-aminoquinazolin-6-yl)thiophen-2-yl)methylamino)-N-(3,4-difluorobenzyl)-5-(oxetan-3-yl)nicotinamide] | < 0.1 µM | < 1 µM |  |  | 
12 | C[C@H](NC(=O)c1nc(C#N)cnc1NCc1ccc(-c2cnc(N)c(N3CCNCC3)n2)cc1)c1ccc(F)c(F)c1 [Example 192, 3-[4-(3′-Amino-3,4,5,6-tetrahydro-2H-[1,2′]bipyrazinyl-6′-yl)-benzylamino]-6-cyano-pyrazine-2-carboxylic acid [(S)-1-(3,4-difluoro-phenyl)-ethyl]-amide] |  |  | < 0.1 µM | 1 to 10 µM | 
13 | Nc1ncc(-c2ccc(CNc3ncc(C(F)(F)F)cc3C(=O)Nc3ccc(F)cc3)cc2)nc1O[C@H]1CCC[C@@H]1N [Example 170, 2-{4-[5-Amino-6-((1S,2S)-2-amino-cyclopentyloxy)-pyrazin-2-yl]-benzylamino}-N-(4-fluoro-phenyl)-5-trifluoromethyl-nicotinamide] |  |  | < 0.1 µM | 1 to 10 µM | 
14 | Nc1n[nH]c2ncc(-c3ccc(CNc4nccc5ncn(Cc6ccc(F)c(F)c6)c(=O)c45)cc3)cc12 [Example 40, 5-(4-(3-amino-1H-pyrazolo[3,4-b]pyridin-5-yl)benzylamino)-3-(3,4-difluorobenzyl)pyrido[4,3-d]pyrimidin-4(3H)-one] | < 0.1 µM | < 1 µM |  |  | 
15 | C[C@H](NC(=O)c1cc(C(F)(F)F)cnc1NCc1ccc(-c2cnc3[nH]c(=O)[nH]c3c2)cc1)c1ccc(F)c(F)c1 [Example 362, (S)-N-(1-(3,4-difluorophenyl)ethyl)-2-(4-(2-oxo-2,3-dihydro-1H-imidazo[4,5-b]pyridin-6-yl)benzylamino)-5-(trifluoromethyl)nicotinamide] |  |  | < 0.1 µM | < 1 µM | 
16 | C[C@H](NC(=O)c1nc(C#N)cnc1NCc1ccc(-c2cnc(N)c(CCCO)n2)cc1)c1ccc(F)c(F)c1 [Example 95, 3-{4-[5-Amino-6-(3-hydroxy-propyl)-pyrazin-2-yl]-benzyl-amino}-6-cyano-pyrazine-2-carboxylic acid [(S)-1-(3,4-difluoro-phenyl)-ethyl]-amide] |  |  | < 0.1 µM | < 1 µM | 
17 | Nc1n[nH]c2ncc(-c3ccc(CNc4ncc(C(F)(F)F)cc4C(=O)Nc4ccccn4)cc3)cc12 [Example 274] |  |  | < 0.1 µM | 1 to 10 µM | 
18 | CCC(=O)Nc1cnc(NCc2ccc(-c3ccc4ncnc(N)c4c3)s2)c(C(=O)NCc2ccc(F)c(F)c2)c1 [Example 8.5.2, 2-({[5-(4-aminoquinazolin-6-yl)thiophen-2-yl]methyl}amino)-N-(3,4-difluorobenzyl)-5-(propanoylamino)pyridine-3-carboxamide] | < 0.1 µM | 1 to 10 µM |  |  | 
19 | O=C(NCc1ccc(F)c(F)c1)c1cccnc1NCc1cc(-c2c[nH]c3ncc(-c4ccc[nH]4)cc23)ccn1 [Example 336] |  |  | < 0.1 µM | 1 to 10 µM | 

Now from value to compound, other results behind:

Row | IC50 [1, 3] | EC50 [2, 4] | IC50 ([1]; inhibition of PDK1 in vitro) | EC50 [2, 5] | Structure (SMILES) | also measured
20 | 1 to 5 µM | 1 to 10 µM |  |  | O=C(NCC1CCCC1)c1cccnc1NCc1ccc(-c2c[nH]c3ncccc23)s1 [Example 1.19, 2-(((5-(1H-pyrrolo[2,3-b]pyridin-3-yl)thiophen-2-yl)methyl)amino)-N-4-(cyclopentylmethyl) nicotinamide] | 
21 | < 0.1 µM | > 10 µM |  |  | Nc1ncnc2ccc(-c3ncc(CNc4ncccc4C(=O)NCc4ccc(F)c(F)c4)s3)cc12 [Ex. 6.6, 2-({[2-(4-aminoquinazolin-6-yl)-1,3-thiazol-5-yl]methyl}amino)-N-(3,4-difluoro-benzyl) pyridine-3-carboxamide] | 
22 | < 0.1 µM | < 1 µM |  |  | Nc1ncnc2ccc(-c3ccc(CNc4ncccc4C(=O)NCc4cccc(F)c4)s3)cc12 [Example 3.9, 2-({[5-(4-aminoquinazolin-6-yl)thiophen-2-yl]methyl}amino)-N-(3-fluorobenzyl)pyridine-3-carboxamide (TFA salt)] | 
23 | < 0.1 µM | < 1 µM |  |  | Nc1ncnc2ccc(-c3ccc(CNc4ncc([N+](=O)[O-])cc4C(=O)NCc4ccc(F)c(F)c4)s3)cc12 [Ex. 8.2, 2-{[5-(4-Amino-quinazolin-6-yl)-thiophen-2-ylmethyl]-amino}-N-(3,4-difluoro-benzyl)-5-nitro-nicotinamide] | 
24 | < 0.1 µM | < 1 µM |  |  | Nc1ncnc2ccc(-c3ccc(CNc4nccnc4C(=O)NCc4cc(F)c(F)c(F)c4)s3)cc12 [Example 3.71, 3-({[5-(4-aminoquinazolin-6-yl)thiophen-2-yl]methyl}amino)-N-(3,4,5-trifluorobenzyl)pyrazine-2-carboxamide (TFA salt)] | 
25 | < 0.1 µM | 1 to 10 µM |  |  | CC(C)Oc1cc(CNc2ncccc2C(=O)NCc2ccc(F)c(F)c2)cc(-c2c[nH]c3ncccc23)c1 [Example 5.7, N-(3,4-difluorobenzyl)-2-(3-isopropoxy-5-(1H-pyrrolo[2,3-b]pyridin-3-yl)benzylamino)nicotinamide] | 
26 | 0.1 to 1 µM | 1 to 10 µM |  |  | Nc1ncnc2ccc(-c3ccc(CNc4nccc5c4C(=O)N(Cc4ccc(F)c(F)c4)C5)s3)cc12 [Ex. 7.19, 4-({[5-(4-aminoquinazolin-6-yl)thiophen-2-yl]methyl}amino)-2-(3,4-difluorobenzyl)-1,2-dihydro-3H-pyrrole[3,4-c]pyridin-3-one] | 
27 | < 0.1 µM | 1 to 10 µM |  |  | C[C@H](NC(=O)c1cccnc1NCc1ccc(-c2ccc3ncnc(NC4CNC4)c3c2)s1)c1ccc(F)c(F)c1 [Example 4.36, 2-({5-[4-(Azetidin-3-ylamino)-quinazolin-6-yl]-thiophen-2-ylmethyl}-amino)-N-[(S)-1-(3,4-difluoro-phenyl)-ethyl]-nicotinamide] | 
